Source: paper PMC7104285, “Enzymatic Degradation of p-Nitrophenyl Esters, Polyethylene Terephthalate, Cutin, and Suberin by Sub1, a Suberinase Encoded by the Plant Pathogen Streptomyces scabies” (Microbes and Environments, 2020)

System: T1, Sub1
T1 construct: signal peptide removed; pET-30a(+) NcoI/XhoI, His6-tagged (tag kept), expressed in E. coli SHuffle T7
Assay: spectrophotometric p-nitrophenol release at […] nm, Michaelis-Menten fit
Format: biochemical, Streptomyces scabiei
Settings: Tris-HCl 20 mM, pH 7.5, room temperature; Triton X-100 (0.5%) apparently present

CCCC(=O)Oc1ccc([N+](=O)[O-])cc1 [p-nitrophenyl butyrate]
Km: 570 ± 40 µM
